Laboratory results: patent US20210186970A1, “SELECTIVE CALCIUM CHANNEL ANTAGONISTS” (Northwestern University, priority 2011, published 2021)
“And” between values parts separate entries of the source, which are not always exact repeats. Identical values can stand only once.

Key:
[1] = target: T1, Cav1.3 L-type Ca channels (Rattus norvegicus, UniProt P27732); test: FLIPR Fluo-8 calcium assay, Cav1.3 channel inhibition in HEK293 cells; assay type: cell-based; conditions: for selectivity for Cav1.3 over Cav1.2: ratio of IC50 values for the two cell lines
T1 construct: expressed in transfected cells; host or cells: HEK293

Cav1.3 (α1D) LTCC = target: T2, Cav1.3 (α1D) LTCC (Rattus norvegicus, UniProt P27732); test: Whole-cell voltage-clamp recordings, Cav1.3 LTCC in HEK293 cells; assay type: cell-based
T2 construct: expressed in transfected cells; host or cells: HEK-293, stably transfected
Experimental: (§1) Using the same cell lines from the initial screening, whole-cell voltage clamp recordings were made of either Cav1.3 LTCC or Cav1.2 LTCC containing HEK293 cells in the absence or presence of SKP00 4C08 at 1 μM. Bath application of SKP00 4C08 blocks ˜35% of the Cav1.3 channel current. SKP00 4C08 at the same concentration had no effect on Cav1.2 channel currents.
(§2) Bioactivity Confirmation Using Whole-cell Patch Clamp. Because IC50 values depend strongly on assay conditions, the inhibitory activity of compound 8 (SKP00 4C08) was confirmed at Cav1.3 and Cav1.2 channels in HEK293 cells by whole-cell voltage-clamp electrophysiological recordings (FIG. 8).
(§3) Whole-cell voltage-clamp recordings (FIG. 8A) were made in the absence (black, top) or presence (red, top) of compound 8 (SKP00 4C08) (5 μM). Superfusion of selected PYT blocks evoked barium currents in both LTCC cell lines in keeping with the data from our initial screen (FIG. 5B).
General Procedure for Whole-cell Patch Clamp. HEK-293 cells were stably transfected with rat Cav1.3 (α1D) or rabbit Cav1.2 (α1C), Cavβ3, and Cavα2δ-1 and were cultured as previously reported (Chan et al. (2007) Nature 447:1081-1086.; herein incorporated by reference in its entirety). After 24-48 h of incubation at 37° C., cells underwent whole-cell patch-clamp electrophysiology. The external solution contained the following (in mM): 140 NaCl, 1 MgCl2, 10 BaCl2, 10 HEPES, 10 dextrose, 10 sucrose, and 20 CsCl at pH 7.4 and an osmolarity of ˜320 mOSml^−1. The test compound stock solutions in DMSO (10 mM or just DMSO) were diluted with the external solution to the desired concentration (10^−9 to 10^−6M), which was perfused (2 mL/min) into the bath while measuring the evoked barium currents. For experiments where dose-response curves were obtained, local perfusion of the desired concentration was employed. Barium currents were measured from whole-cell voltage patch-clamp recordings using a Pulse 8.4 software data acquisition system (HEKA, Germany). […] Electrophysiological signals were analyzed using […] […]

[2] = target: T3, Cav1.2 (α1C) L-type calcium channel (Oryctolagus cuniculus, UniProt P15381); test: Whole-cell voltage-clamp recordings, Cav1.2 LTCC in HEK293 cells; assay type: cell-based, rabbit; conditions: rabbit, pH 7.4; 5 μM, whole-cell voltage clamp; read-out: inhibition of Cav1.2 channels
T3 construct: expressed in transfected cells; host or cells: HEK-293, stably transfected
Experimental: as §1, §2, §3
(§4) General Procedure for Whole-cell Patch Clamp. […] Barium currents were measured from whole-cell voltage patch-clamp recordings using a Pulse 8.4 software data acquisition system (HEKA, Germany). […] Electrophysiological signals were analyzed using […] […]

Cav1.2 (α1C) LTCC = target: T4, Cav1.2 (α1C) LTCC (Oryctolagus cuniculus, UniProt P15381); test: as above; assay type: cell-based, rabbit; conditions: 1 μM
T4 construct: expressed in transfected cells; host or cells: HEK-293, stably transfected
Experimental: as §1, §2, §3, §4

[3] = target: Cav1.2 L-type Ca channels (Oryctolagus cuniculus, UniProt P15381); test: FLIPR Fluo-8 calcium assay, Cav1.2 channel inhibition in HEK293 cells

T2 sequence (P27732 whole entry): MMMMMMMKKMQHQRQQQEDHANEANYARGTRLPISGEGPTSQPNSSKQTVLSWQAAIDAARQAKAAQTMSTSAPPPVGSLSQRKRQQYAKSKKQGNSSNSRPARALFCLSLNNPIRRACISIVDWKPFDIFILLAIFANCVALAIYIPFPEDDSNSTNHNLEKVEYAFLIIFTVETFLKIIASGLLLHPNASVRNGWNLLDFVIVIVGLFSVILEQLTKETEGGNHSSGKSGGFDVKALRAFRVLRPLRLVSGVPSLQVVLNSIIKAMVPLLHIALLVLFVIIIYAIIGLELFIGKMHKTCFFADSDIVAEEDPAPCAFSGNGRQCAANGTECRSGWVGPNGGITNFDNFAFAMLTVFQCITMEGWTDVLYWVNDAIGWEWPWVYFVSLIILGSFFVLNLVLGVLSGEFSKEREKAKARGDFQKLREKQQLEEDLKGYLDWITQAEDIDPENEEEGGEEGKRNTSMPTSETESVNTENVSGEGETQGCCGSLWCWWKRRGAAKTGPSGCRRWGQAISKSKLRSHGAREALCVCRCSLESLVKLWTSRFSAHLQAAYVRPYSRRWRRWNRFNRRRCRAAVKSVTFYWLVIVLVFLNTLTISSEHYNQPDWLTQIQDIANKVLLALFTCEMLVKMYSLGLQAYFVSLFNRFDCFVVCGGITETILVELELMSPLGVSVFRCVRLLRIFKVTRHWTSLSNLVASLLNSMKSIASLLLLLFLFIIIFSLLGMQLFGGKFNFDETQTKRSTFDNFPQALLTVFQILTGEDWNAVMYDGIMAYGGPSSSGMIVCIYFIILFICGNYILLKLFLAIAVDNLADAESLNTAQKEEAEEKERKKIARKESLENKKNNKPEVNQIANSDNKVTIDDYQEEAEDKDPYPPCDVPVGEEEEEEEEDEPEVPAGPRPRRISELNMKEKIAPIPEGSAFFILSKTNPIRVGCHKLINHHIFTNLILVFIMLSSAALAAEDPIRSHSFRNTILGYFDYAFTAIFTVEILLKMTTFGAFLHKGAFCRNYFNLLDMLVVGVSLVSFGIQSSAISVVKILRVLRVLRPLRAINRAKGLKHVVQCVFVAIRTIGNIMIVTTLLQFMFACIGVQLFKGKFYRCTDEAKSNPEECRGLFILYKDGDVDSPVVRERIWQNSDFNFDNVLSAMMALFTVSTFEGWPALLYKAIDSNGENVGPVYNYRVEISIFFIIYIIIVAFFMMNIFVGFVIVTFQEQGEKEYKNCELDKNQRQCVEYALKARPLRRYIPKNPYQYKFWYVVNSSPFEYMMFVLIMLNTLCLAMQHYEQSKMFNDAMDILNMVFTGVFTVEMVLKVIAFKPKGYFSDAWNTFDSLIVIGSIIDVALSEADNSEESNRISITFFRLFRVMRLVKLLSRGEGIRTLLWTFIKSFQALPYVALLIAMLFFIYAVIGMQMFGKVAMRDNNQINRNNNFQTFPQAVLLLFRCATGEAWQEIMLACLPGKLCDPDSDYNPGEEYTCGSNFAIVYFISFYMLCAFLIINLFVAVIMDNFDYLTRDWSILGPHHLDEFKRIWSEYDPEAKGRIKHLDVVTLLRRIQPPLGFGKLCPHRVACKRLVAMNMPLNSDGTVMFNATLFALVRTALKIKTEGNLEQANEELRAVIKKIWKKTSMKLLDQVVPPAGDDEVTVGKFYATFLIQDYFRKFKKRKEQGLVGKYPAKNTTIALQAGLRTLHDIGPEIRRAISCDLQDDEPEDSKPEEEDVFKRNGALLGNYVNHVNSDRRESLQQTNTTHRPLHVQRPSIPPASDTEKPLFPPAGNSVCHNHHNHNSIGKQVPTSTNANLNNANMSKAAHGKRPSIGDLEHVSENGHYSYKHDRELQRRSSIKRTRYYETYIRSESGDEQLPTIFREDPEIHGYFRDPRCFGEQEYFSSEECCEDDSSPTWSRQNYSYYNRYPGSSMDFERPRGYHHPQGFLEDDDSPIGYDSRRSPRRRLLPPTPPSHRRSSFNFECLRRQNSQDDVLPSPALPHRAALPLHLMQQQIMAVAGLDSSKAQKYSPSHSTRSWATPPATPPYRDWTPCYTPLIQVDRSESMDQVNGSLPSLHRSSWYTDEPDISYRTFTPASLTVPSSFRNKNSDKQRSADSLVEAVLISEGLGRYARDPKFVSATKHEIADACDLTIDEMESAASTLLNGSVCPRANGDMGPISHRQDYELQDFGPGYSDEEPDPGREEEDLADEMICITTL
T2 sequence (P54284 whole entry partner): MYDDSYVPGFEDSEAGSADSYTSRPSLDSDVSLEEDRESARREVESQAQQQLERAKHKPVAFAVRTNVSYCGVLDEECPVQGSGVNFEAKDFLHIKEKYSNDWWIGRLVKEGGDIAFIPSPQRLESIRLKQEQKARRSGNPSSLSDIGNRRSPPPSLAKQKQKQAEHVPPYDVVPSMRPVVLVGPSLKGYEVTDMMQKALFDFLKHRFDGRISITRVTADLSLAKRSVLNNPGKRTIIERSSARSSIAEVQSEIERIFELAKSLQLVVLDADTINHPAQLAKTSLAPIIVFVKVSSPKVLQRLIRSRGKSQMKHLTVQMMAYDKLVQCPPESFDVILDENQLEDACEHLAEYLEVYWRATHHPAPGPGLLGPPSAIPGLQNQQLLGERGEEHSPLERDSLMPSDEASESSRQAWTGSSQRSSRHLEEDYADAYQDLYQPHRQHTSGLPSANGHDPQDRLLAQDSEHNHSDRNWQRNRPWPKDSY
T2 sequence (P54289 25-956 partner limits assumed): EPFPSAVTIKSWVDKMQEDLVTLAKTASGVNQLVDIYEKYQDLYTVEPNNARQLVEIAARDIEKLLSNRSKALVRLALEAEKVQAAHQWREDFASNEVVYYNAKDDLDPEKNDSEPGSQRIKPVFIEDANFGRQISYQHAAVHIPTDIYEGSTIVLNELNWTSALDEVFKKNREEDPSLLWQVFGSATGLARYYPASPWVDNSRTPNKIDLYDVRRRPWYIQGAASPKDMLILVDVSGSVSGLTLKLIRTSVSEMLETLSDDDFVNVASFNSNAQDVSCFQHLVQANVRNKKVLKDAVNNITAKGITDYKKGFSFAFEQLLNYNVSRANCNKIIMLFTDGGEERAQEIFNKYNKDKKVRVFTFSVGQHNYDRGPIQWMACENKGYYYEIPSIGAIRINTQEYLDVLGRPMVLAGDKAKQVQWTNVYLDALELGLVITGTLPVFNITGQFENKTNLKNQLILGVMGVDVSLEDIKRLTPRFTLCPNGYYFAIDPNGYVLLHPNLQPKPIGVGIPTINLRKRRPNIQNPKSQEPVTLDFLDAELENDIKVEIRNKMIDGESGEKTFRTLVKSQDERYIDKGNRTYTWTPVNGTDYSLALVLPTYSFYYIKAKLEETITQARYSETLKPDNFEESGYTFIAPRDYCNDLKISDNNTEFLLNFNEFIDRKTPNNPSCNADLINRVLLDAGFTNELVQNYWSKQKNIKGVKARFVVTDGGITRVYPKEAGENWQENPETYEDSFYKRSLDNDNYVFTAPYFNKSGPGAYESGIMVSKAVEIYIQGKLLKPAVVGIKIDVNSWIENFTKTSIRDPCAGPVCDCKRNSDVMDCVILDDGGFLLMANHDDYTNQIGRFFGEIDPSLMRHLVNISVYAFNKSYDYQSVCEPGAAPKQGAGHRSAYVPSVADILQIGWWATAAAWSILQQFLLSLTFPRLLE
T2 sequence (P54289 957-1103 partner limits assumed): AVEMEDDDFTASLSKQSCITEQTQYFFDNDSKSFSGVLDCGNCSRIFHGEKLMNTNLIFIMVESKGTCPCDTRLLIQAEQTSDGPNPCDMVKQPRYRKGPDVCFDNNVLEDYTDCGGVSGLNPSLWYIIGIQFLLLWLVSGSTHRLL
T1 sequence (P27732 whole entry): as the sequence (P27732 whole entry) above
T1 sequence (P54284 whole entry partner): as the sequence (P54284 whole entry partner) above
T1 sequence (P54289 25-956 partner limits assumed): as the sequence (P54289 25-956 partner limits assumed) above
T1 sequence (P54289 957-1103 partner limits assumed): as the sequence (P54289 957-1103 partner limits assumed) above

Question: For `O=C1CC(=O)N(C2CCCC2)C(=O)N1CCc1cccc(Cl)c1` [Compound 8, N-(3-chlorophenethyl)-N′-cyclopentyl-pyrimidine-2,4,6-(1H,3H,5H)-trione], which IC50 ([1]; IC50 (μM) Cav1.3, Table 4, 12 concentration points (0.1 nM~100 μM) in duplicate) is on record?
Answer: Its IC50 is 1.7 µM.

Question: And the IC50 ([1]; IC50 (μM) Cav1.3, third library, FLIPR, HEK293, value (±SD))?
Answer: The IC50 was 1.7 µM.

Question: What about the IC50 ([1]; IC50 with Cav1.3) of the same compound?
Answer: The IC50 was 1.61 µM and 1.7 µM.

Question: And the Selectivity ([1]; Table 4, Cav1.3 relative to Cav1.2 from IC50 values)?
Answer: The Selectivity was 1008.

Question: And the “inhibition ratio Cav1.3 vs Cav1.2, FLIPR assay” value ([1]; at 5.5 (unit not given))?
Answer: Its value is 11 fold.

Question: And the “selectivity for Cav1.3 over Cav1.2” value [1]?
Answer: Its value is 1000 fold.

Question: What about the “selectivity for Cav1.3 over Cav1.2” value ([1]; listed as SKP00 4C08) of the same compound?
Answer: The value was “greater than 1000 fold”.

Question: What about the Selectivity ([1]; third library, ratio of IC50 Cav1.2 to Cav1.3) of the same compound?
Answer: The Selectivity was 1008.2.

Question: And the “block of Cav1.3 channel current” value (Cav1.3 (α1D) LTCC; 1 μM, bath application)?
Answer: The value was about 35%.

Question: What about the “inhibition ratio Cav1.3 vs Cav1.2” value (Cav1.3 (α1D) LTCC; 5 μM, whole-cell voltage clamp) of the same compound?
Answer: Its value is “roughly 12 fold”.

Question: What about the inhibition at 5 µM (Cav1.3 (α1D) LTCC; HEK293, 5 μM, whole-cell voltage clamp, read-out: inhibition of Cav1.3 channels) of the same compound?
Answer: Its inhibition at 5 µM is 43.8 ± 11%.

Question: And the inhibition at 5 µM [2]?
Answer: The inhibition at 5 µM was 3.8 ± 2.9%.

Question: And the “effect on Cav1.2 channel currents” value (Cav1.2 (α1C) LTCC)?
Answer: The value was “no effect”.

Question: What about the melting point of the same compound?
Answer: The melting point was 131 to 132 °C.

Question: What about the IC50 ([3]; IC50 (μM) Cav1.2, Table 4, 12 concentration points (0.1 nM~100 μM) in duplicate) of the same compound?
Answer: The IC50 was 1730 µM.

Question: What about the IC50 ([3]; IC50 (μM) Cav1.2, third library, FLIPR, HEK293, value (±SD)) of the same compound?
Answer: The IC50 was 1730 µM.
